A short description of this data set: plasma concentration of itraconazole required for clinical benefit in humans with cancer. Format: in vivo. The settings on record: human, after 4 weeks of therapy, read-out: minimum plasma trough level required to have a clinically significant effect. Here is the method: Optionally, the treatment method further comprises measuring the plasma level of the HhP inhibitor, or a metabolite thereof, in the subject one or more times. In some embodiments, the measuring is carried out one or more times about 4 weeks after initiation of treatment with the HhP inhibitor. Observations concerning the desirability of achieving a plasma trough level of at least about 1,000 ng/mL of the HhP inhibitor are described in U.S. Pat. No. 9,192,609 (“Treatment and Prognostic Monitoring of Proliferation Disorders Using Hedgehog Pathway Inhibitors”; Virca and O'Donnell), which is incorporated herein by reference in its entirety.
In particular, the minimum plasma trough level after 4 weeks of therapy required to have a clinically significant effect was at least 1000 ng/ml. […] Nevertheless, there can be side-effects peculiar to such high doses such as hypertension, peripheral edema, and hypokalemia, which seem to be a result of an increased production of mineralocorticoid. These side effects associated with these high doses of itraconazole can be effectively managed by giving a selective mineralocorticoid antagonist, such as eplerenone. Accordingly, in some embodiments, the method further comprises administering eplerenone or other mineralocorticoid inhibitor. […]

Consider `CCC(C)n1ncn(-c2ccc(N3CCN(c4ccc(OCC5COC(Cn6cncn6)(c6ccc(Cl)cc6Cl)O5)cc4)CC3)cc2)c1=O` (stereo not shown) [itraconazole], for which the concentration at 4 weeks is at least 1000 ng/mL.
